Results reported in patent US7138361B2, “Herbicidal heterocycles” (E. I. du Pont de Nemours and Company, priority 2000, dated 2006).

Tests used:
Format in all cases: in vivo
[1] = tested on: giant foxtail (Setaria faberii); test: Test B postemergence; conditions: 13 to 15 days
Summary of the method: (§1)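 Seeds were planted and sprayed preemergence with test chemical in a non-phytotoxic solvent mixture containing surfactant; postemergence plants (2 to 18 cm, 1- to 4-leaf stage) received the same formulation. Greenhouse hold 13 to 15 days, then visual rating versus untreated controls on a 0–100 scale (0 no effect, 100 complete control).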

[2] = tested on: barnyardgrass (Echinochloa crus-galli); test: Test B postemergence; conditions: 13 to 15 days
Summary of the method: as §1

[3] = tested on: crabgrass (Digitaria sanguinalis); test: Test B postemergence; conditions: 13 to 15 days
Summary of the method: as §1

[4] = tested on: morning glory (Ipomoea hederacea); test: Test B postemergence; conditions: 13 to 15 days
Summary of the method: as §1

[5] = tested on: wheat (Triticum aestivum); test: Test B postemergence; conditions: 13 to 15 days
Summary of the method: as §1

[6] = tested on: cocklebur (Xanthium strumarium); test: Test B postemergence; conditions: 13 to 15 days
Summary of the method: as §1

corn (Zea mays) [7] = test: Test B postemergence; conditions: 13 to 15 days
Summary of the method: as §1

[8] = tested on: blackgrass (Alopecurus myosuroides); test: Test B postemergence; conditions: 13 to 15 days
Summary of the method: as §1

[9] = tested on: Surinam grass (Brachiaria decumbens); test: Test B postemergence; conditions: 13 to 15 days
Summary of the method: as §1

[10] = tested on: pigweed (Amaranthus retroflexus); test: Test B postemergence; conditions: 13 to 15 days
Summary of the method: as §1

[11] = tested on: lambsquarters (Chenopodium album); test: Test B postemergence; conditions: 13 to 15 days
Summary of the method: as §1

wild oat (Avena fatua) = test: Test B postemergence; conditions: 13 to 15 days
Summary of the method: as §1

[12] = tested on: velvetleaf (Abutilon theophrasti); test: Test B postemergence; conditions: 13 to 15 days
Summary of the method: as §1

[13] = tested on: duck salad (Heteranthera limosa); test: Test C flooded paddy test; conditions: for Ducksalad plant response rating: Flooded Paddy, scale 0 to 100, 0 no effect, 100 complete control; for Plant response rating, Ducksalad: flooded paddy test, scale 0 to 100 (0 no effect, 100 complete control)
Summary of the method: (§2)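 Plants were grown to the 2-leaf stage under flooded paddy conditions and treated. They were then kept in a greenhouse for 12 to 14 days and visually rated against untreated controls on a 0–100 scale, where 0 is no effect and 100 is complete control.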

[14] = tested on: barnyardgrass (Echinochloa crus-galli); test: Test C flooded paddy test; conditions: for Barnyardgrass plant response rating: Flooded Paddy, scale 0 to 100, 0 no effect, 100 complete control; for Plant response rating, Barnyardgrass: flooded paddy test, scale 0 to 100 (0 no effect, 100 complete control)
Summary of the method: as §2

[15] = tested on: smallflower flatsedge (Cyperus difformis); test: Test C flooded paddy test; conditions: for Flatsedge plant response rating: Flooded Paddy, scale 0 to 100, 0 no effect, 100 complete control; for Plant response rating, Flatsedge: flooded paddy test, scale 0 to 100 (0 no effect, 100 complete control)
Summary of the method: as §2

rice (Oryza saliva) [16] = test: Test C flooded paddy test; conditions: for Rice plant response rating: Flooded Paddy, scale 0 to 100, 0 no effect, 100 complete control; for Plant response rating, Rice: flooded paddy test, scale 0 to 100 (0 no effect, 100 complete control)
Summary of the method: as §2

[17] = tested on: giant foxtail (Setaria faberii); test: Test B preemergence
Summary of the method: as §1

[18] = tested on: barnyardgrass (Echinochloa crus-galli); test: Test B preemergence
Summary of the method: as §1

[19] = tested on: crabgrass (Digitaria sanguinalis); test: Test B preemergence
Summary of the method: as §1

[20] = tested on: morning glory (Ipomoea hederacea); test: Test B preemergence
Summary of the method: as §1

[21] = tested on: cocklebur (Xanthium strumarium); test: Test B preemergence
Summary of the method: as §1

rice (Oryza saliva) [22] = test: Test B preemergence
Summary of the method: as §1

corn (Zea mays) [23] = test: Test B preemergence
Summary of the method: as §1

[24] = tested on: Surinam grass (Brachiaria decumbens); test: Test B preemergence
Summary of the method: as §1

[25] = tested on: pigweed (Amaranthus retroflexus); test: Test B preemergence
Summary of the method: as §1

[26] = tested on: lambsquarters (Chenopodium album); test: Test B preemergence
Summary of the method: as §1

[27] = tested on: velvetleaf (Abutilon theophrasti); test: Test B preemergence
Summary of the method: as §1

[28] = Rate 125 g/ha, scale 0 (no effect) to 100 (complete control)
[29] = Rate 500 g/ha, scale 0 to 100, 0 is no effect, 100 is complete control
[30] = Preemergence, Rate 500 g/ha, scale 0 to 100, 0 no effect, 100 complete control
[31] = preemergence, Rate 125 g/ha, scale of 0 to 100 where 0 is no effect and 100 is complete control, 13 to 15 days

Cc1c(F)cc(N2CCC(n3ccc(C(C)(C)C)n3)C2=O)cc1Br (stereo not shown) [Compound 78]
Plant response rating, Foxtail, Giant [1, 28]: 0
Plant response rating, Foxtail, Giant [1, 29]: 0
Plant response rating, Barnyardgrass [2, 28]: 0
Plant response rating, Barnyardgrass [2, 29]: 0
Plant response rating, Crabgrass [3, 28]: 0
Plant response rating, Crabgrass [3, 29]: 0
Plant response rating, Morningglory [4, 28]: 0
Plant response rating, Morningglory [4, 29]: 0
Plant response rating, Wheat [5, 28]: 0
Plant response rating, Wheat [5, 29]: 0
Plant response rating, Cocklebur [6, 28]: 0
Plant response rating, Cocklebur [6, 29]: 20
Plant response rating, Corn (corn (Zea mays) [7]; [28]): 0
Plant response rating, Corn (corn (Zea mays) [7]; [29]): 0
Plant response rating, Blackgrass [8, 28]: 0
Plant response rating, Blackgrass [8, 29]: 0
Plant response rating, Surinam grass [9, 28]: 0
Plant response rating, Surinam grass [9, 29]: 0
Plant response rating, Pigweed [10, 28]: 70
Plant response rating, Pigweed [10, 29]: 80
Plant response rating, Lambsquarters [11, 28]: 0
Plant response rating, Lambsquarters [11, 29]: 10
Plant response rating, Wild Oat (wild oat (Avena fatua); [28]): 0
Plant response rating, Wild Oat (wild oat (Avena fatua); [29]): 0
Plant response rating, Velvetleaf [12, 28]: 0
Plant response rating, Velvetleaf [12, 29]: 0
Ducksalad plant response rating ([13]; Rate 250 g/ha): 0
Ducksalad plant response rating ([13]; Rate 500 g/ha): 0
Plant response rating, Ducksalad ([13]; Rate 62 g/ha): 0
Plant response rating, Ducksalad ([13]; Rate 125 g/ha): 0
Barnyardgrass plant response rating ([14]; Rate 250 g/ha): 0
Barnyardgrass plant response rating ([14]; Rate 500 g/ha): 60
Plant response rating, Barnyardgrass ([14]; Rate 62 g/ha): 0
Plant response rating, Barnyardgrass ([14]; Rate 125 g/ha): 0
Flatsedge plant response rating ([15]; Rate 250 g/ha): 0
Flatsedge plant response rating ([15]; Rate 500 g/ha): 90
Plant response rating, Flatsedge ([15]; Rate 62 g/ha): 0
Plant response rating, Flatsedge ([15]; Rate 125 g/ha): 0
Rice plant response rating (rice (Oryza saliva) [16]; Rate 250 g/ha): 0
Rice plant response rating (rice (Oryza saliva) [16]; Rate 500 g/ha): 0
Plant response rating, Rice (rice (Oryza saliva) [16]; Rate 62 g/ha): 0
Plant response rating, Rice (rice (Oryza saliva) [16]; Rate 125 g/ha): 0
Plant response rating, Foxtail, Giant [17, 30]: 10
Plant response rating, Foxtail, Giant [17, 31]: 0
Plant response rating, Barnyardgrass [18, 30]: 90
Plant response rating, Barnyardgrass [18, 31]: 0
Plant response rating, Crabgrass [19, 30]: 30
Plant response rating, Crabgrass [19, 31]: 0
Plant response rating, Morningglory [20, 30]: 0
Plant response rating, Morningglory [20, 31]: 0
Plant response rating, Cocklebur [21, 30]: 0
Plant response rating, Cocklebur [21, 31]: 0
Plant response rating, Rice (rice (Oryza saliva) [22]; [30]): 0
Plant response rating, Rice (rice (Oryza saliva) [22]; [31]): 0
Plant response rating, Corn (corn (Zea mays) [23]; [30]): 0
Plant response rating, Corn (corn (Zea mays) [23]; [31]): 0
Plant response rating, Surinam grass [24, 30]: 0
Plant response rating, Surinam grass [24, 31]: 0
Plant response rating, Pigweed [25, 30]: 100
Plant response rating, Pigweed [25, 31]: 80
Plant response rating, Lambsquarters [26, 30]: 100
Plant response rating, Lambsquarters [26, 31]: 100
Plant response rating, Velvetleaf [27, 30]: 0
Plant response rating, Velvetleaf [27, 31]: 0
